IC50 data for 46 molecules are collected here from the Kinase Knowledgebase extract (Sharma et al. 2016).

The target in one experiment is PIK3CG (human) (UniProt P48736). The experiment is described as follows: Inhibition of PIK3CG Kinase Assay.
In another experiment the target is PIK3CB (UniProt P42338). Description: Inhibition of PIK3CB Kinase Assay.

Several values for one entry are separate records, joined by “and”; a condition that tells them apart may be missing. Equal values may be shown once.

Chain of PIK3CG (human) (P48736 whole entry, looked up): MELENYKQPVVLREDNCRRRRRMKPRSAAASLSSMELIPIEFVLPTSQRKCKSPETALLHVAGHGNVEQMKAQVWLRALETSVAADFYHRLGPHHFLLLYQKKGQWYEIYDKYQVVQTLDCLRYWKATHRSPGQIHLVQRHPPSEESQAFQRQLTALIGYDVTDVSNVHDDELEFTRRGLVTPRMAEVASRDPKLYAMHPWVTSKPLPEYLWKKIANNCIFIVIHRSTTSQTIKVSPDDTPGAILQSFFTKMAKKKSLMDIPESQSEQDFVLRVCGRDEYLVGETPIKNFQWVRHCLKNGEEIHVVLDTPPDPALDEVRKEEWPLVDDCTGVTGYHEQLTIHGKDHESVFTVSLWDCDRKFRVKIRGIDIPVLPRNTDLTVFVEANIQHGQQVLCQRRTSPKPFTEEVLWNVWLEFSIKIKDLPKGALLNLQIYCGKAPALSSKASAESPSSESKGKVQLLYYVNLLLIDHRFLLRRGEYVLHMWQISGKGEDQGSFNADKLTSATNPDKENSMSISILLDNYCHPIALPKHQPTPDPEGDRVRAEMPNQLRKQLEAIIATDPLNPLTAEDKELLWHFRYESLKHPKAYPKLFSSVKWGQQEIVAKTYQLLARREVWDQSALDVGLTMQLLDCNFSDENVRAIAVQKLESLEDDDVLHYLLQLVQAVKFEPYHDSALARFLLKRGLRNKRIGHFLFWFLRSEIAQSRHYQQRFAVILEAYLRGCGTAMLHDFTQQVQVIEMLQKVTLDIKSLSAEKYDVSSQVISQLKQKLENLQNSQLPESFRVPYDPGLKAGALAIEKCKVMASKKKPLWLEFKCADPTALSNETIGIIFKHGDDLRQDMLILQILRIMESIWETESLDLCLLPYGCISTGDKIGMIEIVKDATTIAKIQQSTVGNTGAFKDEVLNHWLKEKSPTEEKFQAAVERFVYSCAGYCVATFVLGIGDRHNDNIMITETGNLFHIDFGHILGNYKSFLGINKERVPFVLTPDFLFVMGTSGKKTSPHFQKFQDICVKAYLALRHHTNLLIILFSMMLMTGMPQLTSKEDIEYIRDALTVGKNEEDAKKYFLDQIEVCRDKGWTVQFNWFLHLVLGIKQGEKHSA
Chain of PIK3CB (P42338 whole entry, looked up): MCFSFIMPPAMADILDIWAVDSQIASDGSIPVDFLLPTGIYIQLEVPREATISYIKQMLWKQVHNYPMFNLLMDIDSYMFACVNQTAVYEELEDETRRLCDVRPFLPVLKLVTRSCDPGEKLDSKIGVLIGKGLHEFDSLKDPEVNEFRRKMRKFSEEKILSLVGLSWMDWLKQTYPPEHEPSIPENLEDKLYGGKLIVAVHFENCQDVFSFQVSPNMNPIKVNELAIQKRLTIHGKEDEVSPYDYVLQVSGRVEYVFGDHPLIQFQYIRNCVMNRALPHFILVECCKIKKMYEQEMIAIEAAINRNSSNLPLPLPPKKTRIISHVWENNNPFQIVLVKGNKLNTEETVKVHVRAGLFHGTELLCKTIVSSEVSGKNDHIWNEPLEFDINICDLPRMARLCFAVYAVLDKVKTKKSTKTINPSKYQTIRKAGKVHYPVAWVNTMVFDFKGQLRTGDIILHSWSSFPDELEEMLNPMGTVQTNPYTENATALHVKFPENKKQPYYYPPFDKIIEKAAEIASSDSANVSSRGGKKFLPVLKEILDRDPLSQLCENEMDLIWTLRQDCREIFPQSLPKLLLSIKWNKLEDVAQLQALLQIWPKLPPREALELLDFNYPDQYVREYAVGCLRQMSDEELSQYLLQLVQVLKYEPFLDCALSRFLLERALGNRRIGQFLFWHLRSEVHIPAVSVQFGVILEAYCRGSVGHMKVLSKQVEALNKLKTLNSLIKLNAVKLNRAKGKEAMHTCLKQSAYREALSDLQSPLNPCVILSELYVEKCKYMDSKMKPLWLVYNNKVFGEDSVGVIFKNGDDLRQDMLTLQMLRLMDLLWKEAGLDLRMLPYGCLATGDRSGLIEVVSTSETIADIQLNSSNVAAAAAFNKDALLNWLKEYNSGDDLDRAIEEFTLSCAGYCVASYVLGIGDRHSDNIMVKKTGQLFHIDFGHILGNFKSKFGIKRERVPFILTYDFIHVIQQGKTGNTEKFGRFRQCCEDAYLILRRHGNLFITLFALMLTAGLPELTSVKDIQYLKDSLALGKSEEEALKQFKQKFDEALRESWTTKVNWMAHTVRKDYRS

In general, IC50 refers to the concentration needed to halve the response being measured. `O=C(NC1=Nc2cc(O)ccc2C2=NCCN12)c1cccnc1`: the IC50 lay within 100 to 500 nM against PIK3CG (human) and 500 to 2000 nM against PIK3CB.

`COc1c(O)ccc2c1N=C(/C=C(\O)c1cccnc1)N1CCN=C21` came in with an IC50 against PIK3CB of 500 to 2000 nM.

At PIK3CB, `COC(=O)CCCOc1ccc2c(c1OC)N=C(/C=C(\O)c1cccnc1)N1CCN=C21` registered an IC50 of 500 to 2000 nM.

For the molecule `O=C(NC1=Nc2cc(OCCn3cccc3)ccc2C2=NCCN12)c1cccnc1`, the IC50 on PIK3CG (human) and on PIK3CB was 100 to 500 nM each time.

On to `O=C(NC1=Nc2ccccc2C2=NCCN12)c1cccnc1`, for which the half-maximal inhibitory concentration (IC50) against PIK3CG (human) is not above 100 nM; against PIK3CB, 100 to 500 nM.

Regarding `COc1c(OCCCC(=O)N2CCOCC2)ccc2c1N=C(/C=C(\O)c1cccnc1)N1CCN=C21`, the IC50 is not above 100 nM against PIK3CG (human) and 100 to 500 nM against PIK3CB.

With `COc1c(OCCCC(=O)O)ccc2c1N=C(/C=C(\O)c1cccnc1)N1CCN=C21`, the IC50 against PIK3CG (human) was not above 100 nM; against PIK3CB, 100 to 500 nM.

`COc1cc2c(cc1OC)C1=NCCN1C(/C=C(\O)c1cccnc1)=N2`: the IC50 is not above 100 nM against PIK3CG (human) and 500 to 2000 nM on PIK3CB.

As for `CC(=O)Nc1ccc(C(=O)NC2=Nc3cc(N4CCOCC4)ccc3C3=NCCN23)cn1`, the IC50 against PIK3CG (human) was not above 100 nM; at PIK3CB, 500 to 2000 nM and 100 to 500 nM.

With `CC(=O)Nc1ccc(/C(O)=C/C2=Nc3cc(N4CCN(C)CC4)ccc3C3=NCCN23)cn1`, on PIK3CG (human), the half-maximal inhibitory concentration (IC50) is 100 to 500 nM.

For `CC(=O)Nc1ccc(/C(O)=C/C2=Nc3c(CN4CCOCC4)cccc3C3=NCCN23)cn1`, the IC50 against PIK3CG (human) was 100 to 500 nM.

In turn, `CC(=O)Nc1ccc(/C(O)=C/C2=Nc3cc(N4CCOCC4)ccc3C3=NCCN23)cn1` registered an IC50 at PIK3CG (human) not above 100 nM.

Regarding `COc1c(C)ccc2c1N=C(/C=C(\O)c1ccc3[nH]cnc3c1)N1CCN=C21`, on PIK3CG (human), the IC50 is not above 100 nM.

At PIK3CG (human), `COc1c(OCC(=O)N2CCOCC2)ccc2c1N=C(/C=C(\O)c1cccnc1)N1CCN=C21` registered an IC50 not above 100 nM.

The molecule `COc1cccc2c1N=C(/C=C(\O)c1cccnc1)N1CCN=C21` gave an IC50 against PIK3CG (human) not above 100 nM.

On to `NS(=O)(=O)c1ccc(C(=O)NC2=Nc3ccccc3C3=NCCN23)cc1`, for which the IC50 on PIK3CG (human) lay within 500 to 2000 nM.

Turning to `O/C(=C\C1=Nc2cc(N3CCOCC3)ccc2C2=NCCN12)c1cncc(O)c1`, the IC50 at PIK3CG (human) was not above 100 nM.

Consider `Cc1nc2ncccc2cc1C(=O)NC1=Nc2ccccc2C2=NCCN12`, for which the IC50 against PIK3CG (human) was 100 to 500 nM.

For `O/C(=C\C1=Nc2ccccc2C2=NCCN12)c1ccncc1`, the IC50 against PIK3CG (human) lay within 100 to 500 nM.

The molecule `O/C(=C\C1=Nc2ccccc2C2=NCCN12)c1csc2ccccc12` came in with an IC50 against PIK3CG (human) of more than 2000 nM.

`COc1ccc2c(c1Br)N=C(NC(=O)c1cccnc1)N1CCN=C21` showed an IC50 against PIK3CG (human) not above 100 nM.

Consider `CC(=O)Nc1ccc(C(=O)NC2=Nc3cc(N4CCOCC4)ccc3C3=NCCN23)cc1`, for which, on PIK3CG (human), the IC50 was in the range of 100 to 500 nM.

With `COc1ccc2c(c1)N=C(NC(=O)c1ccc3[nH]cnc3c1)N1CCN=C21`, on PIK3CG (human), the IC50 is not above 100 nM.

At PIK3CG (human), `COc1cc2c(cc1OC)C1=NCCN1C(NC(=O)c1cncc(O)c1)=N2` gave an IC50 not above 100 nM.

On to `COc1ccc2c(c1OC)N=C(NC(=O)c1ccc3[nH]cnc3c1)N1CCN=C21`, for which, at PIK3CG (human), the concentration for half-maximal inhibition (IC50) is not above 100 nM.

As to `Cc1ccncc1C(=O)NC1=Nc2ccccc2C2=NCCN12`, the IC50 at PIK3CG (human) is 100 to 500 nM.

Take `Cc1cccc2c1N=C(NC(=O)c1cccnc1)N1CCN=C21`: on PIK3CG (human), the IC50 was 100 to 500 nM.

The molecule `O=C(NC1=Nc2cc(N3CCCCC3)ccc2C2=NCCN12)c1cccnc1` displayed an IC50 at PIK3CG (human) of 100 to 500 nM.

Molecule `COc1cc(OC)c2c(c1)C1=NCCN1C(NC(=O)c1ccc(NC(C)=O)nc1)=N2` came in with a 50% inhibitory concentration (IC50) against PIK3CG (human) of 100 to 500 nM.

On PIK3CG (human), `CSc1ccc(C(=O)NC2=Nc3ccccc3C3=NCCN23)cc1` came in with an IC50 of more than 2000 nM.

On PIK3CG (human), `O/C(=C\C1=Nc2c(OCCN3CCOCC3)cccc2C2=NCCN12)c1cccnc1` yielded a half-inhibitory concentration (IC50) of 100 to 500 nM.

Consider `C=Cc1ccc2c(c1)C1=NCCN1C(NC(=O)c1cccnc1)=N2`, for which, on PIK3CG (human), the IC50 lay within 100 to 500 nM.

For `Cc1ccc(C(=O)NC2=Nc3ccccc3C3=NCCN23)c(Cl)n1`, the IC50 at PIK3CG (human) was in the range of 500 to 2000 nM.

Molecule `COc1cc2c(cc1OC)C1=NCCN1C(NC(=O)c1ccc(NC(C)=O)nc1)=N2` came in with an IC50 on PIK3CG (human) of 100 to 500 nM.

`O=C(NC1=Nc2ccccc2C2=NCCN12)c1ccc(-n2cccc2)cc1` registered an IC50 against PIK3CG (human) of more than 2000 nM.

In turn, `COc1ccc2c(c1OCCN1CCOCC1)N=C(/C=C(\O)c1cccnc1)N1CCN=C21` had a concentration for half-maximal inhibition (IC50) against PIK3CG (human) not above 100 nM.

As to `CNc1ccc(C(=O)NC2=Nc3ccccc3C3=NCCN23)cn1`, on PIK3CG (human), the IC50 lay in the range of 100 to 500 nM.

As to `O/C(=C\C1=Nc2c(Br)cccc2C2=NCCN12)c1cccnc1`, the 50% inhibitory concentration (IC50) against PIK3CG (human) fell in the range of 100 to 500 nM.

`O=C(NC1=Nc2ccccc2C2=NCCN12)c1csc(-c2cccnc2)n1` displayed an IC50 on PIK3CG (human) of more than 2000 nM.

At PIK3CG (human), `O=C(NC1=Nc2c(cccc2C(F)(F)F)C2=NCCN12)c1ccc2[nH]cnc2c1` came in with an IC50 not above 100 nM.

As for `O=C(NC1=Nc2ccccc2C2=NCCN12)c1ccc([N+](=O)[O-])cc1`, the IC50 at PIK3CG (human) is more than 2000 nM.

`CS(=O)(=O)c1ccc(C(=O)NC2=Nc3ccccc3C3=NCCN23)cc1` showed an IC50 against PIK3CG (human) of more than 2000 nM.

At PIK3CG (human), `CCOC(=O)c1cc(C(=O)NC2=Nc3ccccc3C3=NCCN23)cc(C(=O)OCC)c1` gave an IC50 of more than 2000 nM.

`Cc1ccc2c(c1)N=C(/C=C(\O)c1cccnc1)N1CCN=C21` yielded an IC50 at PIK3CG (human) of 100 to 500 nM.

For the molecule `Cc1cnc(C(=O)NC2=Nc3ccccc3C3=NCCN23)cn1`, the IC50 on PIK3CG (human) is 500 to 2000 nM.

`O/C(=C\C1=Nc2c(CN3CCOCC3)cccc2C2=NCCN12)c1cccnc1` yielded a concentration for half-maximal inhibition (IC50) against PIK3CG (human) of 100 to 500 nM.
